This is an account of results in patent US4996201A, “4-(N-substituted amino)-2-butynyl-1-carbamates and thiocarbamates and derivatives thereof as centrally acting muscarinic agents” (Warner-Lambert Co., priority 1989, dated 1991).

Counter-ions that a name gives are not always drawn.

For series [1] the following is noted: in vivo; cited from earlier work.
Series [2] relates to human SK-N-SH cells bearing muscarinic binding sites. Put plainly: Muscarinic Induced Inositol Phosphate Accumulation Assay (MIPA). The series is classed as cell-based. To be noted: inositol phosphate production, concentration for response 50% of the maximum, read-out: Agonist Response ED50. The procedure:
In the Muscarinic Induced Inositol Phosphate Accumulation Assay (MIPA) human SK-N-SH cells bearing muscarinic binding sites are incubated with the test compound. The production of inositol phosphates is then measured. Stimulation of inositol phosphate turnover reflects the degree of muscarinic agonist activity of the test compound. The concentration of test compound required to produce a response 50% of the maximum is then determined.

For series [3], the target named is central muscarinic agonist site. Put plainly: Receptor [3H]Cis-methyldioxalane Assay (RCMD), central muscarinic agonist site binding. To be noted: rat cerebral cortex tissue; radiolabeled cis-methyldioxalane; head also prints (0.1 μM).
In another series the test system is laboratory rats. Put plainly: Scopolamine Induced Swimming Assay (SIS). To be noted: for reversal of scopolamine-induced swimming hyperactivity: rats given scopolamine, result in words. The series is classed as in vivo, rat. Here is the method:
In the Scopolamine Induced Swimming Assay (SIS) the ability of a test compound to reverse the hyperactive swimming behavior of laboratory rats given scopolamine is determined. In the assay, untreated rats generally swim between 20 to 30 meters during a five-minute test period. […] The effect of scopolamine is centrally mediated. Thus, the ability of the test compound to reverse the hyperactive swimming behavior induced by scopolamine is a measure of the central cholinergic activity of the compound.

In series [4] the test system is central muscarinic antagonist site. It counts as binding. The note with it: rat cerebral cortex tissue; radiolabeled quinuclidinyl benzilate; (1 μM); read-out: RQNB IC50.
In series [5] the test system is aged humans and nonhuman primates. To be noted: acetylcholinesterase inhibitor; cited from earlier work.
For series [6] the following is noted: in vivo; cited from earlier work. The source holds these as a separate data set.
A further series relates to mice. To be noted: cited from earlier work.

`Nc1ccncc1N` [3,4-diaminopyridine]: the age-related cognitive deficits result in series [1] is on record as “ameliorate age-related cognitive deficits”.
For `COC(=O)N(C)CC#CCN1CCCC1` [Example 1, Methyl[methyl4-(1-pyrrolidinyl]-2-butynyl]]-carbamate, ethanedioate (1:1) (salt)], the EC50 in series [2] came to 10000 nM. Moreover, the IC50 in series [3] turned out to be 14.3 nM; in series [4], 2660 nM. Also, the minimal effective dose in the series on laboratory rats (Rattus norvegicus, Minimal Effective Dose to reverse scopolamine (0.1 mg/kg) induced hyperactive swimming in rats, read-out: Reversal of SIS Hyperactivity MED) was determined as 10 mg/kg.
For `COC(=O)N(C)CC#CCN1CCCCC1` [Example 1f, Methyl methyl[4-(1-piperidinyl]-2-butynyl-carbamate, ethanedioate (1:1) (salt)], the results for the IC50 in series [3] and in series [4] were 1570 nM and 4990 nM, respectively.
Turning to `COC(=O)N(C)CC#CCN1CCCCCC1` [Example 1g, Methyl[4-(hexahydro-1H-azepin-1-yl]-2-butynyl]methylcarbamate, ethanedioate (1:1) (salt)], the figures for the IC50 in series [3] and in series [4] were 958 nM and 1950 nM, respectively.
In the case of `COC(=O)N(C)CC#CCN(C)C` [Example 2, Methyl[4-(dimethylamino)-2-butynyl]methyl-carbamate, ethanedioate (1:1)(salt)], in series [2], the EC50 came out at 59200 nM. For the same molecule, the results for the IC50 in series [3] and in series [4] were 63 nM and 46600 nM, respectively.
In the case of `COC(=O)C1=CCCN(C)C1` [arecoline], the “reversal of scopolamine-induced swimming hyperactivity” value in the series on laboratory rats was “can be reversed”.
On to `CNC(=O)Oc1ccc2c(c1)[C@]1(C)CCN(C)[C@@H]1N2C` [physostigmine], for which the memory entry in series [5] is on record as “improved memory”. Moreover, the “reversal of scopolamine-induced swimming hyperactivity” value in the series on laboratory rats is recorded as “can be reversed”.
Consider `CN1[C@@H]2C[C@@H](OC(=O)[C@H](CO)c3ccccc3)C[C@H]1[C@@H]1O[C@@H]12` [scopolamine], for which, in the series on laboratory rats (scopolamine 0.1 mg/kg, five-minute test period, rats), the “swimming distance increase above baseline values” is given as 75-125%.
Take `C(#CCN1CCCC1)CN1CCCC1` [tremorine, 1,4-dipyrrolidino-2-butyne]: in series [6], the “conversion to active metabolite oxotremorine” value is on record as “converted to an active metabolite, oxotremorine”. Further, the “duration of profound tremor of the head and limbs” value with mice is reported as “more than one”.

A word on the IC50: it is the concentration at which inhibition is half-maximal.
